Data as given in ChEMBL document CHEMBL5291721, “A preclinical secondary pharmacology resource illuminates target-adverse drug reaction associations of marketed drugs” (Nat Commun, 2023).

Key:
Histamine H1 receptor = Histamine H1 receptor (Homo sapiens, UniProt P35367)
[1] = biological target: 5-hydroxytryptamine receptor 2B (Homo sapiens, UniProt P41595); type: functional, cell-based
[2] = biological target: T1, Alpha-1A adrenergic receptor (Homo sapiens, UniProt P35348); type: functional, cell-based
T1 sequence (P35348 whole entry): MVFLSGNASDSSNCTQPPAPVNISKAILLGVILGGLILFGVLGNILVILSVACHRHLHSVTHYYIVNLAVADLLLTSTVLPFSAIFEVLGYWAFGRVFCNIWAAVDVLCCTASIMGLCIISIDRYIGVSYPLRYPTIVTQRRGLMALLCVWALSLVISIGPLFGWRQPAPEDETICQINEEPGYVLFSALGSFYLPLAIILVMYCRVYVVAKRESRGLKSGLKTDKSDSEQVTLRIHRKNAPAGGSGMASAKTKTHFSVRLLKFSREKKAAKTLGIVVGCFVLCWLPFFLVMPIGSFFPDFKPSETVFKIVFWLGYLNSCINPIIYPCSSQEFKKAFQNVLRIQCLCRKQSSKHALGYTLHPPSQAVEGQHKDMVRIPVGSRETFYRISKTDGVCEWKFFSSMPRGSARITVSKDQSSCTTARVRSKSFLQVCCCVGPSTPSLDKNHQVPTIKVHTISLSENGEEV

Progesterone receptor = biological target: T2, Progesterone receptor (Homo sapiens, UniProt P06401); type: functional
T2 sequence (P06401 whole entry): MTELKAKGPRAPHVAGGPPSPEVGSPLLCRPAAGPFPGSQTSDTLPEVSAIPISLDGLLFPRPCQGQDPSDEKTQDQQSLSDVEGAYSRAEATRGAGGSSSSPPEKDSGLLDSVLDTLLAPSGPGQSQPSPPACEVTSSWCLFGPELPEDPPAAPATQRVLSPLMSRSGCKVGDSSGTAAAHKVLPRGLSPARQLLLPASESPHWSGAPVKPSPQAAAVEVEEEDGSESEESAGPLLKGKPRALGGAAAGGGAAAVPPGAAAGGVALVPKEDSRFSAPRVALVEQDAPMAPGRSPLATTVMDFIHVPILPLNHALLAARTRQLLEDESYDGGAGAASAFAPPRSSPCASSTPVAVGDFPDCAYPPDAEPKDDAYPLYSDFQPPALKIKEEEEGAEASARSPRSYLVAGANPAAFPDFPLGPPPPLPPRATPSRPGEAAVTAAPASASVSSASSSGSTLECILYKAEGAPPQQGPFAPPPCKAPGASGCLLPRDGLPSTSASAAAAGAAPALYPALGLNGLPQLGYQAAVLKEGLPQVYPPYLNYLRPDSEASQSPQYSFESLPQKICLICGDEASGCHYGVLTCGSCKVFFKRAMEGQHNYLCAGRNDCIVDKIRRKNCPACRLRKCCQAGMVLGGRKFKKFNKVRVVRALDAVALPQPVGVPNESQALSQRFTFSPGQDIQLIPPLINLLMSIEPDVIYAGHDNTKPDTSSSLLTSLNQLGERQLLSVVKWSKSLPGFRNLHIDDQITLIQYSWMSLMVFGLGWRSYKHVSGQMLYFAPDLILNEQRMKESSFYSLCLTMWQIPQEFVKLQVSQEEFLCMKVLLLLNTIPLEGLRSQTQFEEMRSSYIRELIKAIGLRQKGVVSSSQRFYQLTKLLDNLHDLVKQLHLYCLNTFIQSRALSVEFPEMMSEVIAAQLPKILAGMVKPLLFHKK

Vasopressin V2 receptor = Vasopressin V2 receptor (Homo sapiens, UniProt P30518)
[3] = biological target: Gamma-aminobutyric acid receptor subunit alpha-1 (Rattus norvegicus, UniProt P62813)
[4] = biological target: Glutamate receptor ionotropic, NMDA 1 (Rattus norvegicus, UniProt P35439)
[5] = biological target: T3, Amine oxidase [flavin-containing] A (Homo sapiens, UniProt P21397); type: functional
T3 sequence (P21397 whole entry): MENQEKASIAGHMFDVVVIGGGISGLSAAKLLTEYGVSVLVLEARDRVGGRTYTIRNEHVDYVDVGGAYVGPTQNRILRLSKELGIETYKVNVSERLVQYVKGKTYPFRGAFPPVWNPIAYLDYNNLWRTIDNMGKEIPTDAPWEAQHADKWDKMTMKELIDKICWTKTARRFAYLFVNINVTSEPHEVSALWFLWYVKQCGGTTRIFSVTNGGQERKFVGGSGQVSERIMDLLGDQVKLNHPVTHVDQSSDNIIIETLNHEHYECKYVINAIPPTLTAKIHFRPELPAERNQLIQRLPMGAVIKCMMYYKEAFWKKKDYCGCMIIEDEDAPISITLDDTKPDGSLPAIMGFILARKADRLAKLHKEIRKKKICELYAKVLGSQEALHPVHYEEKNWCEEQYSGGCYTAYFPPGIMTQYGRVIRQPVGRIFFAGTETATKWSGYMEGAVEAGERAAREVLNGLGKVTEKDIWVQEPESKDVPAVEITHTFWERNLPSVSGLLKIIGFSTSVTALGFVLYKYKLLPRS

[6] = biological target: T4, Alpha-2A adrenergic receptor (Homo sapiens, UniProt P08913)
T4 sequence (P08913 whole entry): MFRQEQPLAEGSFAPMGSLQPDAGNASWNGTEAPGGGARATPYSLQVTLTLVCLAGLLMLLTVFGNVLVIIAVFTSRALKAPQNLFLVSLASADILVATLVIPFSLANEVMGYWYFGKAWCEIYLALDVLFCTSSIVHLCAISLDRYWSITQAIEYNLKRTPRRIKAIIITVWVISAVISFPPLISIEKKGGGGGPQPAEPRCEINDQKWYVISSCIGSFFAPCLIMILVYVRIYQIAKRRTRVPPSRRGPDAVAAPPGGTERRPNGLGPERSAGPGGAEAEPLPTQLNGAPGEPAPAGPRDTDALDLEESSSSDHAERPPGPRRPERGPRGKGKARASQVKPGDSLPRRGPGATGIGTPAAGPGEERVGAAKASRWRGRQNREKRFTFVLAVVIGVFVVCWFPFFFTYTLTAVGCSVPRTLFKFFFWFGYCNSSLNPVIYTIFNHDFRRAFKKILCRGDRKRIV

[7] = biological target: 3',5'-cyclic-AMP phosphodiesterase 4A (Homo sapiens, UniProt P27815); type: functional
Histamine H3 receptor = Histamine H3 receptor (Homo sapiens, UniProt Q9Y5N1)
[8] = biological target: Sodium-dependent noradrenaline transporter (Homo sapiens, UniProt P23975)
Cannabinoid receptor 1 = Cannabinoid receptor 1 (Homo sapiens, UniProt P21554)
[9] = biological target: Voltage-dependent L-type calcium channel subunit alpha-1C (Rattus norvegicus, UniProt P22002); type: functional
Further: assay procedure not described here.

Chain of Voltage-dependent L-type calcium channel subunit alpha-1C (P22002 whole entry): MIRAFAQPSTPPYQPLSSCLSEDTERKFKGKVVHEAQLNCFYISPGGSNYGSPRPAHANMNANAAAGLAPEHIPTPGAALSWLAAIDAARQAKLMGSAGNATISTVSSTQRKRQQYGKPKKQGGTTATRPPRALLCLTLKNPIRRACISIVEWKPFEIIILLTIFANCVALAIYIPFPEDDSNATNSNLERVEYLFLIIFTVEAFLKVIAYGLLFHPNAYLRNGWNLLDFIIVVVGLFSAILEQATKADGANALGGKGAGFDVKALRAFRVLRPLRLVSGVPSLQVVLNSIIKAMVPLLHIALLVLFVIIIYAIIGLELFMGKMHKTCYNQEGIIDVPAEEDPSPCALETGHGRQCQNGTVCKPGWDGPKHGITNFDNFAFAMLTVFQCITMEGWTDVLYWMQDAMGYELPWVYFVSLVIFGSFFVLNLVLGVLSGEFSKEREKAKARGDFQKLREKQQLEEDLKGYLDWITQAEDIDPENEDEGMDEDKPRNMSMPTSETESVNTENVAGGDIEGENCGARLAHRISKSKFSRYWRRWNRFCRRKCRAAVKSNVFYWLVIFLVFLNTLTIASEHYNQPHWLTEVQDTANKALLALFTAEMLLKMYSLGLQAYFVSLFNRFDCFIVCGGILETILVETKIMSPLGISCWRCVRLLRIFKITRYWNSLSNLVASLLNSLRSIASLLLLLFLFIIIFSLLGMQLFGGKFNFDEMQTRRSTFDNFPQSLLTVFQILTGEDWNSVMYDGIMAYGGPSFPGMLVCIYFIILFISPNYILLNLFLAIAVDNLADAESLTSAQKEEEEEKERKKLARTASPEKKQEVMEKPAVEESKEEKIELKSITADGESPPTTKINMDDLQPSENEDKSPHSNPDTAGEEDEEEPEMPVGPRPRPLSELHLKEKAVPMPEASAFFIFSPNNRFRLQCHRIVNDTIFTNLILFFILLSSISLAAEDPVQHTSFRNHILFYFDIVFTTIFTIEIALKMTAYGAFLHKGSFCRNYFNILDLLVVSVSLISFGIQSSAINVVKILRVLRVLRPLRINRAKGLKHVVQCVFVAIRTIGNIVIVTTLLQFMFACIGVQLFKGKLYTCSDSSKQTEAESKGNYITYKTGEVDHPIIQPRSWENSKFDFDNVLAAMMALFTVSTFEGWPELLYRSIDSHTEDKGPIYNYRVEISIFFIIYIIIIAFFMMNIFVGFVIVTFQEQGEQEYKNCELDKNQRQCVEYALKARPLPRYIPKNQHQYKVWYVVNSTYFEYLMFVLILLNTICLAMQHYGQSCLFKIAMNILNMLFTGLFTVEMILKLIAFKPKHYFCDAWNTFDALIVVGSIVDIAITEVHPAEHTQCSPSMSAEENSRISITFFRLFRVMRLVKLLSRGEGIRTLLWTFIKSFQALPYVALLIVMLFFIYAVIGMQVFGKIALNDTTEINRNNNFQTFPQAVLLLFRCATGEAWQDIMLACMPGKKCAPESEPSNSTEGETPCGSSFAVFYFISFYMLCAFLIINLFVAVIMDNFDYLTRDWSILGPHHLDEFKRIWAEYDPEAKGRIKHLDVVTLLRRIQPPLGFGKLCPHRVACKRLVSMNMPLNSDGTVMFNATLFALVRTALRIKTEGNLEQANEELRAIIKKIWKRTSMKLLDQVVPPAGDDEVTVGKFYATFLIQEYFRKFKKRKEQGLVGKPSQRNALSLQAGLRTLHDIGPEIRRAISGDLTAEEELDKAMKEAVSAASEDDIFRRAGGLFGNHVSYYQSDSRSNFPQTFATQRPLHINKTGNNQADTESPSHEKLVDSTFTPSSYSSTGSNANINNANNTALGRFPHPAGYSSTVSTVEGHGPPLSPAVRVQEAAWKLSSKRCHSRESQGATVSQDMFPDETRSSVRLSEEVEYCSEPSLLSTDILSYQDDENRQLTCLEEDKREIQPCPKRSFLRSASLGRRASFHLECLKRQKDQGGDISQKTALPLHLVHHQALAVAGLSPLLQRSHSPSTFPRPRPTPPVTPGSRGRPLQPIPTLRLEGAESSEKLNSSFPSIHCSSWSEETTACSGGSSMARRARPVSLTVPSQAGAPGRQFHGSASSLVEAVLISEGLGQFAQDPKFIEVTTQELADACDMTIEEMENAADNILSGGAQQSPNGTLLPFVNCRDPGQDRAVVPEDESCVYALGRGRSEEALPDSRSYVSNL
Chain of Histamine H3 receptor (Q9Y5N1 whole entry): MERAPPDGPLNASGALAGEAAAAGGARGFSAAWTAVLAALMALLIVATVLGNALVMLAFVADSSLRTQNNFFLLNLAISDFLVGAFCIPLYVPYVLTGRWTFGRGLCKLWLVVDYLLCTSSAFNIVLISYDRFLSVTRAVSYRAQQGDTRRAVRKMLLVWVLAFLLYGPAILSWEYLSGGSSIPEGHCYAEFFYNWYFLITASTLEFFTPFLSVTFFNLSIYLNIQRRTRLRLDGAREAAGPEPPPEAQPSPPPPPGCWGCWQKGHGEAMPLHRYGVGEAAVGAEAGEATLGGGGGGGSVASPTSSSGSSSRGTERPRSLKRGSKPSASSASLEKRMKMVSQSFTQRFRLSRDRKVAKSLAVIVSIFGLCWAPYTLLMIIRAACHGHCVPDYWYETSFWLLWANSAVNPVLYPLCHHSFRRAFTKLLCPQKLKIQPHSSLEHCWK
Chain of Vasopressin V2 receptor (P30518 whole entry): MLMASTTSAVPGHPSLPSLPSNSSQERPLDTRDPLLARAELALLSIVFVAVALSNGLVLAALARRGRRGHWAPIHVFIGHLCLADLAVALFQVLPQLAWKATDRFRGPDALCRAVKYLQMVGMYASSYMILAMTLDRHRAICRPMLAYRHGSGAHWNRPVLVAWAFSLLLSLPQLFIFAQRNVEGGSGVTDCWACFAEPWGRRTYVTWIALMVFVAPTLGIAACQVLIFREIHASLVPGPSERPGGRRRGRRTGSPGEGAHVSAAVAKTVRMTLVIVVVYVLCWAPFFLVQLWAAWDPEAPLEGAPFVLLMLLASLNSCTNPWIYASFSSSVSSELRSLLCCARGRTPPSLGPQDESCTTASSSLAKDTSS
Chain of 3',5'-cyclic-AMP phosphodiesterase 4A (P27815 whole entry): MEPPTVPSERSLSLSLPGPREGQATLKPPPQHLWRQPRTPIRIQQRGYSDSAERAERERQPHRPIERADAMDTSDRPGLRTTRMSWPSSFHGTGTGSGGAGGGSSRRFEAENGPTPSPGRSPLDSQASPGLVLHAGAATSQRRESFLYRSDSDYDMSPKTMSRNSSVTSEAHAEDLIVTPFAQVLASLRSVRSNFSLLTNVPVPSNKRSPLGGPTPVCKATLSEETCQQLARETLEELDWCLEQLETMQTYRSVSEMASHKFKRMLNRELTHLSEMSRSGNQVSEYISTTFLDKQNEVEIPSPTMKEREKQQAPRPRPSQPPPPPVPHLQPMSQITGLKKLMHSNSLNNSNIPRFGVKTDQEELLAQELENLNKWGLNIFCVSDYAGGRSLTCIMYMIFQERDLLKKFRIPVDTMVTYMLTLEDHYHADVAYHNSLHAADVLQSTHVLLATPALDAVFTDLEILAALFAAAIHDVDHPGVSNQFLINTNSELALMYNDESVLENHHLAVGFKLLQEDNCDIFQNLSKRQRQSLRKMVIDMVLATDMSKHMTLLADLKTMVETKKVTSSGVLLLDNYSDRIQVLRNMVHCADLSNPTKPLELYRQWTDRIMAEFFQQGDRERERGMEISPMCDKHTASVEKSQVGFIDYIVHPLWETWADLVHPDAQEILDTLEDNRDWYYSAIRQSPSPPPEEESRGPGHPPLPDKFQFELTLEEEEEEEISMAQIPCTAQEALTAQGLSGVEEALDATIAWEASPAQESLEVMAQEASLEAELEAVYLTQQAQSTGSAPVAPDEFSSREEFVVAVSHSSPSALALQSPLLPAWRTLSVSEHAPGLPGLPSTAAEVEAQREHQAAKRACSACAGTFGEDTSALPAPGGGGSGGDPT
Chain of Histamine H1 receptor (P35367 whole entry): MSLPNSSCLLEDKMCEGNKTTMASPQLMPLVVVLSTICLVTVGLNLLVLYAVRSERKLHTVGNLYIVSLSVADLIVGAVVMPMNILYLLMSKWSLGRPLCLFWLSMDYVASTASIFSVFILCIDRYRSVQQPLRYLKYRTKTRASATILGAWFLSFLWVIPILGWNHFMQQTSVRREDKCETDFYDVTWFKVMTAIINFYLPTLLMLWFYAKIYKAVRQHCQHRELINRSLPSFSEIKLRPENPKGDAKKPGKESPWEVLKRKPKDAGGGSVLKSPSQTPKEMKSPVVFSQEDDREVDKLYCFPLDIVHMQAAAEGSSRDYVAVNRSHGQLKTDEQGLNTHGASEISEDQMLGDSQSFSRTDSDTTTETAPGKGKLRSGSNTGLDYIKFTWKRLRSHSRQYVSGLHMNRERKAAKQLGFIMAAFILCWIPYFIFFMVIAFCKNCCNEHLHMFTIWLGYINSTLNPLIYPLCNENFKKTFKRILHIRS
Chain of Sodium-dependent noradrenaline transporter (P23975 whole entry): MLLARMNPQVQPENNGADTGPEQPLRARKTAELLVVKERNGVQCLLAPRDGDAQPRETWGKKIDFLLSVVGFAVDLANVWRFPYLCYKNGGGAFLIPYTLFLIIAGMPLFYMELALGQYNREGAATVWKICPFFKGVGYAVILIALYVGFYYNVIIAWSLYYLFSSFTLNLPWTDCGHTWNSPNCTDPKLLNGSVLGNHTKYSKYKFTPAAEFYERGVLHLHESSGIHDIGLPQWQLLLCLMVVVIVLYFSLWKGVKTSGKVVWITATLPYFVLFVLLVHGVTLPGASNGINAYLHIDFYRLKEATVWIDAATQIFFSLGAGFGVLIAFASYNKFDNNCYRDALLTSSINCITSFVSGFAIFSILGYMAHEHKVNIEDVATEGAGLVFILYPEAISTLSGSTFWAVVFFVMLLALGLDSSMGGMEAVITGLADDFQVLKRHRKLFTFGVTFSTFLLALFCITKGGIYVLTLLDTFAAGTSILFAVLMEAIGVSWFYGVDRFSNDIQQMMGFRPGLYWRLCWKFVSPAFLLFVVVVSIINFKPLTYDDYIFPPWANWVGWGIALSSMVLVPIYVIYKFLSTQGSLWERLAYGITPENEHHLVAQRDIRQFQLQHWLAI

SMILES	AC50 (Histamine H1 receptor)	AC50 [1]	AC50 [2]	AC50 (Progesterone receptor)	AC50 (Vasopressin V2 receptor)	AC50 [3]	AC50 [4]	AC50 [5]	AC50 [6]	AC50 [7]	AC50 (Histamine H3 receptor)	AC50 [8]	AC50 (Cannabinoid receptor 1)	AC50 [9]
CN(C)CCC=C1c2ccccc2C(C)(C)c2ccccc21	0.0369 µM	4.34 µM	0.63 µM	> 30 µM										
Nc1nc(NC2CC2)c2ncn([C@H]3C=C[C@@H](CO)C3)c2n1 [ABACAVIR]	> 30 µM		> 30 µM	> 30 µM	> 30 µM	> 30 µM	> 30 µM							
CC(=O)NCCCS(=O)(=O)O [ACAMPROSATE]	> 30 µM	> 30 µM	> 30 µM	> 30 µM	> 30 µM	> 30 µM								
CC(=O)Nc1ccc(O)cc1 [ACETAMINOPHEN]		> 30 µM	> 30 µM	> 30 µM				> 10 µM	> 30 µM	> 30 µM	> 30 µM	> 30 µM		
CCCSc1ccc2nc(NC(=O)OC)[nH]c2c1 [ALBENDAZOLE]		> 10 µM		> 10 µM	> 10 µM	> 10 µM	> 10 µM						> 10 µM	> 10 µM
C=CCc1ccccc1OCC(O)CNC(C)C (stereo unspecified) [ALPRENOLOL]	> 30 µM	16 µM	7.53 µM	> 30 µM	> 30 µM	> 30 µM	> 30 µM	> 0.3 µM	> 0.3 µM	> 0.3 µM	> 0.3 µM	> 0.3 µM		> 30 µM
CNC(=O)c1ccccc1Sc1ccc2c(/C=C/c3ccccn3)n[nH]c2c1 [AXITINIB]	> 30 µM	> 30 µM	> 30 µM	> 30 µM										
Cc1ccc(-c2cc(C(F)(F)F)nn2-c2ccc(S(N)(=O)=O)cc2)cc1 [CELECOXIB]		> 10 µM			> 30 µM	> 10 µM	> 10 µM						> 10 µM	> 10 µM
O=C(Cc1ccc(-c2ccccc2)cc1)Nc1ccccn1 [DIFENPIRAMIDE]	> 30 µM	> 30 µM	> 30 µM			> 30 µM	> 30 µM	> 30 µM	> 30 µM	> 30 µM	> 30 µM	2.16 µM		
O=C(OCC(O)CO)c1ccccc1Nc1ccnc2cc(Cl)ccc12 (stereo unspecified) [GLAFENINE]	> 30 µM	> 30 µM	> 30 µM	> 30 µM				> 30 µM	> 30 µM	8.3 µM	> 30 µM	17 µM		
C[C@H]1CNCCc2ccc(Cl)cc21 [LORCASERIN]	28 µM		> 30 µM	> 30 µM										
